{
  "source": "patent US20080317723A1",
  "about": "“LYMPHATIC ENDOTHELIAL CELLS MATERIALS AND METHODS” (VEGENICS LIMITED, priority 2001, published 2008)",
  "key": {"VEGFR-1/EpoR": {"biological_target": "T1, VEGFR-1/EpoR (Homo sapiens, UniProt P17948)", "T1 construct": "a chimeric receptor containing the extracellular domain of human VEGFR-1, VEGFR-2 or VEGFR-3 fused with the transmembrane and cytoplasmic domains; expressed in transfected cells", "T1 sequence (P17948 27-758 limits assumed)": "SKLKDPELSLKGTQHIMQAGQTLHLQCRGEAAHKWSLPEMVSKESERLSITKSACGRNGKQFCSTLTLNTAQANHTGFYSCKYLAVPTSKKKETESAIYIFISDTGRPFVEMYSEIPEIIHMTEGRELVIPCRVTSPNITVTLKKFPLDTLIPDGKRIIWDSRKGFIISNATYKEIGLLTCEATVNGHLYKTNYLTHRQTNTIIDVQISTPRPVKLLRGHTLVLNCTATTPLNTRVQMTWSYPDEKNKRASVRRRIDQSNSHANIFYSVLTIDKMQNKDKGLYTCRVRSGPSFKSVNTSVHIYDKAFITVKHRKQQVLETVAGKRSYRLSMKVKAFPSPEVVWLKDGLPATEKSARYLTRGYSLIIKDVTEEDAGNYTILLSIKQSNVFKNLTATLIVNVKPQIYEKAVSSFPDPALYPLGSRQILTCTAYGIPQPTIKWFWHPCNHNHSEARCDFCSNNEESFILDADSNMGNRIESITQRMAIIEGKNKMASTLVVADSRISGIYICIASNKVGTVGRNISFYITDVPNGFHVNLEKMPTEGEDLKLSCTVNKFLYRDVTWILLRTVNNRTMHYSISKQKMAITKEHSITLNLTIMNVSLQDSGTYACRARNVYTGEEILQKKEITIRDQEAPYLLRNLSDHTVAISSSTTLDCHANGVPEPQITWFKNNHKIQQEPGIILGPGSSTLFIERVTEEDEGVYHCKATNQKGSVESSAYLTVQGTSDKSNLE", "experiment": "Ba/F3 bioassay, viability (MTT) of VEGFR-1/EpoR cells", "type": "cell-based", "conditions": "FIG. 1A", "protocol": "(§1) FIG. 1A-FIG. 1C. Analysis of the receptor-specificities of different VEGFs using the Ba/F3 bioassay. Measurement of the viability of Ba/F3 cells expressing the chimeric receptors VEGFR-1/EpoR (FIG. 1A), VEGFR-2/EpoR (FIG. 1B) or VEGFR-3/EpoR (FIG. 1C) in the presence of different VEGFs at indicated concentrations. Cell viability was determined using the MTT assay. Data represent the mean values from triplicate assays (mean±s.d.). FIG. 1D-FIG. 1G. Biosensor analysis of the interaction of VEGF-C (FIG. 1D, FIG. 1E) and VEGF-C156S (FIG. 1F, FIG. 1G) with VEGFR-3 (FIG. 1D, FIG. 1F) and VEGFR-2 (FIG. 1E, FIG. 1G). Chimeric receptor proteins were immobilized onto a carboxymethylated dextran surface. Growth factors were injected over the surface at a flow rate of 20 μl/min at the indicated concentrations. The sensorgrams shown have been subtracted with the corresponding signal obtained when the same sample was passed over a blank control channel.\n(§2) Bioassay for VEGFR stimulation. […]\n(§3) VEGF is an endothelial cell mitogen which has been also shown to protect endothelial cells from starvation and TNF-a induced apoptosis via activation of VEGFR-2 (Gerber et al, J. Biol. Chem., 273:30336-30343, 1998; Spyridopoulos et al., J. Mol. Cell. Cardiol., 29:1321-1330, 1997). […] The specificities of the growth factors used were determined using a cell survival bioassay. […]"}, "[1]": {"test_system": "VEGFR-3 expressing lymphatic endothelial cells", "experiment": "Culture and proliferation (PCNA) of isolated VEGFR-3 positive lymphatic endothelial cells", "type": "cell-based, human", "conditions": "complete medium with 5% serum supplemented with VEGF 10 ng/ml or VEGF-C 100 ng/ml", "protocol": "In order to compare the effects of the VEGFs on the survival of lymphatic versus blood vascular endothelial cells, specific antibodies and magnetic microbeads were used to isolate and to culture the VEGFR-3 positive and negative cells. Briefly, in this protocol, three separate sets of VEGFR-3 expressing lymphatic endothelial cells were cultured: a first set was cultured in complete medium containing 5% serum, the second set was cultured in complete medium containing 5% serum and supplemented with VEGF (10 ng/ml,) and the third set was cultured in complete medium containing 5% serum supplemented with VEGF-C (100 ng/ml). The VEGFR-3 positive cells were grown for five days after sorting in serum or supplemented with VEGFC and then stained for podoplanin and proliferating cell nuclear antigen (PCNA). The nuclei were stained with the Hoechst fluorochrome. If supplemented with VEGF-C or VEGF, the cells were stained for PCNA. Immunofluorescence double-staining of non-sorted cells or VEGFR-3 negative and VEGFR-3 positive cell populations with antibodies against podoplanin or VEGFR-3 also was performed."}, "VEGFR-3/EpoR": {"biological_target": "T2, VEGFR-3/EpoR (Homo sapiens, UniProt P35916)", "T2 construct": "a chimeric receptor containing the extracellular domain of human VEGFR-1, VEGFR-2 or VEGFR-3 fused with the transmembrane and cytoplasmic domains; expressed in transfected cells; host or cells: murine Ba/F3 pre-B cells, stably transfected", "T2 sequence (P35916 25-775 limits assumed)": "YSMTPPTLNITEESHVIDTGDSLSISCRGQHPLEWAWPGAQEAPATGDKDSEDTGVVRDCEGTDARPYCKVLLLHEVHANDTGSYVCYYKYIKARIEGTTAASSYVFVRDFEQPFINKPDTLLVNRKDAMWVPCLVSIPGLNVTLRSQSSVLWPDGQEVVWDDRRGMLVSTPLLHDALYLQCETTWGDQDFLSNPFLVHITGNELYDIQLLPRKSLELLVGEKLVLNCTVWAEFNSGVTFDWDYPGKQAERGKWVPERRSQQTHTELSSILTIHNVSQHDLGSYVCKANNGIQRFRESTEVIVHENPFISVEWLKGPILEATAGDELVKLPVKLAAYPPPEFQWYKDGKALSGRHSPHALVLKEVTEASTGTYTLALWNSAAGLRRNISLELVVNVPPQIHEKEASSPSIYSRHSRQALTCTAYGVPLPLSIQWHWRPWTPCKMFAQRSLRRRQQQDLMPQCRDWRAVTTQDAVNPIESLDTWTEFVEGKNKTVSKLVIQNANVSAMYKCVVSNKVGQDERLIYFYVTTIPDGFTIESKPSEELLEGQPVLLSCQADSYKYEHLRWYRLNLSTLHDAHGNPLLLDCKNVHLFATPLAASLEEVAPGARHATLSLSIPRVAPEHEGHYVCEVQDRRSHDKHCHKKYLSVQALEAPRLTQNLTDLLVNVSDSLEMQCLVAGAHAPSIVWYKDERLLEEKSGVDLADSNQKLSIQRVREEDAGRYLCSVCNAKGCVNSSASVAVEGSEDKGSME", "experiment": "Ba/F3 bioassay, viability (MTT) of VEGFR-3/EpoR cells", "type": "cell-based", "protocol": "as §1, §2, §3"}},
  "data": [
    {"molecule": "VEGF", "values": [
      {"measurement": "survival of VEGFR-1/EpoR cells", "setting": "VEGFR-1/EpoR", "result": "able to induce the survival of VEGFR-1/EpoR cells"},
      {"measurement": "proliferation of isolated podoplanin positive cells", "setting": "[1]", "result": "most of the podoplanin positive cells proliferated readily"}
    ]},
    {"molecule": "VEGF-C156S: VEGFR-3 specific mutant form of VEGF-C, cysteine 156 changed into serine; recombinant human (Thr103 to Ile225) (protein, UniProt P49767 103-225, looked up, variant C156S) TEETIKFAAAHYNTEILKSIDNEWRKTQCMPREVCIDVGKEFGVATNTFFKPPSVSVYRCGGCCNSEGLQCMNTSTSYLSKTLFEITVPLSQGPKPVTISFANHTSCRCMSKLDVYRQVHSII", "values": [
      {"measurement": "concentration which gave maximal viability in VEGFR-3/EpoR cell survival assays", "setting": "VEGFR-3/EpoR; Ba/F3 VEGFR-3/EpoR cells", "result": 500, "unit": "ng/mL"},
      {"measurement": "survival of VEGFR-3/EpoR expressing cells", "setting": "VEGFR-3/EpoR; Ba/F3 cells, FIG. 1C", "result": "VEGFR-3/EpoR expressing cells survived"}
    ]}
  ]
}
